Laboratory results taken from US8148385B2, “Substituted [1,2,3] triazolo[4,5-d]pyrimidine derivatives as ADP P2Y12 receptor antagonists” (Janssen Pharmaceutica N.V., priority 2006, dated 2012).
pIC50: −log10 of the molar value.

Columns and labels:
[1] = molecular target: T1, ADP P2Y12 (Homo sapiens, UniProt Q9H244); assay: FLIPR calcium assay transducing Gi-coupled signaling to the Gq pathway (inhibition of calcium mobilization); type: cell-based; conditions: HEK 293 cells co-transfected with P2Y12 and Gqi5, ADP at EC60-70 dose
T1 construct: expressed in transfected cells
Text: A FLIPR Calcium Assay Transducing Gi-Coupled Signaling to the Gq Pathway
The ADP P2Y12 subtype is a Gi coupled GPCR, which mediates inhibition of adenylate cyclase leading to decreased cAMP while Gq proteins primarily activate phospholipase C, which stimulates inositol-1,4,5-triphosphate (IP3) formation and a subsequent increase in intracellular Ca^2+ concentration, which can be easily measured by FLIPR. Prior to the development of a method to convert a Gi coupled GPCR signaling to a Gq coupled GPCR signaling, a significant barrier existed for the functional testing and screening of Gi coupled GPCRs. One popular method, GTPγS migration, is slow, produces a small signal and generates radioactive waste. The discovery that a small switch in the amino acid sequence in the Gi protein could convert it to a protein mediating a Gq coupled response has led to the development of robust, high throughput assays for this valuable receptor subtype.
The FLIPR-based HTS assay transducing the Gi signaling to the Gq pathway is described below.
pcDNA3hygroP2Y12 containing a hygromycin resistance gene and pLEC1-Gqi5-HA containing a neomycin resistance gene (licensed from Molecular Devices, Sunnyvale, Calif.) were co-transfected into Human embryonic kidney (HEK) 293 cells with SuperFect (Qiagen, Valencia, Calif.). Cell clones were selected in the presence of 600 μg/ml hygromycin B (Life Technologies, Carlsbad, Calif.) and 1 mg/ml of G418 (Mediatech, Herndon, Va.). Drug resistant colonies were picked and screened by FLIPR and the gene expression was further confirmed by RT-PCR. Positive clones were maintained in growth medium (DMEM supplemented with 10% FBS, 1×p/s) containing 400 μg/ml of G418 and 200 μg/ml of hygromycin.
The day before the assay, cells are seeded in clear, flat-bottom black-wall, tissue culture treated polystyrene 96- or 384-well plates and incubated at 37° C., 5% CO2. 50 μl of complete dye loading solution (FLIPR Calcium Assay Kit, Molecular Devices) was added to each well containing 100 μl of culture media. The cells were incubated for at least 30 min at 37° C., in 5% CO2 before initiating the assay on the FLIPR. The agonist effect of ADP was tested and EC50 was determined prior to compound testing. The EC60-70 dose was used.
The antagonist compounds were prepared at 4× and the agonists were diluted at 5× the concentration desired in the test wells, and then aliquoted into the sample plates. The sample plates and the cell plate were placed in the FLIPR assay chamber. A first addition (50 μl) was made at the start of reading and a second addition (50 μl) was made after 5 min of reading. Raw fluorescence data was exported for each well and tabulated versus time within an ASCII file. Data was then imported into Excel and the peak response over the basal level was determined. The percent inhibition for each compound was calculated by the change in fluorescent density as a % inhibition of the control ADP response to obtain an IC50, as shown in Table 1 (wherein N/A means Not Applicable).

[2] = molecular target: T2, P2Y12 receptor (Homo sapiens, UniProt Q9H244); assay: Whole cell receptor binding assay for 2-MeS[3H]-ADP; conditions: whole HEK 293 cells transfected with P2Y12; 2-MeS[3H]-ADP 3 nM; 30 min at 37° C.; read-out: Inhibition of Receptor Binding IC50
T2 construct: expressed in transfected cells
Description: A whole cell-binding assay for 2-MeS [^3H]-ADP (Custom synthesized by Amersham BioScience, Piscataway, N.J.) to the P2Y12 receptor was performed.
A P2Y12 cDNA containing hygromycin resistant gene was transfected in HEK 293 cells. A stable cell line was obtained by a cloning selection method. The cells were cultured in DMEM supplemented with 10% FBS and 1× of p/s.
On the day of the assay, the cells were harvested and resuspended in 0.25% BSA-DMEM and adjusted to a cell concentration of 1.6×10^6/ml. […] The reaction was then incubated for 30 min at 37° C. and stopped by adding cold DMEM. […] The plates were dyed in a 37° C. oven for 1-2 hours and 50 μl of MicroScint-20 (PerkinElmer) was added to each well. The radioactivity was measured using a TOPCOUNT beta counter (Packard).

[3] = system: washed platelets; assay: In vitro platelet aggregation; type: cell-based; conditions: Homo sapiens, washed platelets from healthy volunteers, agonist (ADP) at 60-70% aggregation, % inhibition of control ADP response
Description: Platelet aggregation studies were performed according to a published method (Bednar, B., Condra, C., Gould, R. J., and Connolly, T. M., Throm. Res., 77:453-463 (1995). Platelet-rich plasma (PRP) concentrates prepared from healthy volunteers who were aspirin free for at least 7 days by venipuncture using ACD-A as anticoagulant was purchased from Biological Specialties, Inc. (Colmar, Pa.). PRP was centrifuged at 730 g for 15 min. The platelet pellet was washed twice in CGS buffer (13 mM sodium citrate, 30 mM glucose, 120 mM NaCl, pH 6.5) containing 1 μ/ml apyrase (grade V, Sigma-Aldrich, St. Louis, Mo.), 1 mM EGTA, and resuspended in Tyrode's buffer (140 mM NaCl, 2.7 mM KCl, 12 mM NaHCO3, 0.76 mM Na2HPO4, 5.5 mM dextrose, 5.0 mM Hepes, 0.2% BSA, pH 7.4). The platelets were diluted to 3×10^8 platelets/ml and kept >45 min at 37° C. before use. 105 μl of washed platelets, 2 mM CaCl2 and […] of fibrinogen were added to a 96-well microliter plate.
Platelet aggregation was initiated by the addition of serial concentrations of ADP (BioData Corp. Horsham, Pa.). Buffer was added to one set of control wells. The assay plate was stirred constantly and intermittently placed in a microplate reader (Softmax, Molecular Devices, Menlo Park, Calif.) to read optical density (650 nm) at 0 and 5 minutes after the addition of the compound solutions. Aggregation was calculated as the decrease in optical density between the time 0- and 5-min measurements and expressed as % of aggregation. For the inhibition assay, platelet aggregation was conducted as described above except for compound additions. Test compounds were prepared in 100% DMSO and stored.
On the day of the assay, test compounds were diluted in the buffer containing 3% of DMSO as a 10× working solution. 15 μl of compound solutions were added to 105 μl of platelets 5 min prior to the addition of CaCl2 and fibrinogen.

T2 sequence (Q9H244 whole entry): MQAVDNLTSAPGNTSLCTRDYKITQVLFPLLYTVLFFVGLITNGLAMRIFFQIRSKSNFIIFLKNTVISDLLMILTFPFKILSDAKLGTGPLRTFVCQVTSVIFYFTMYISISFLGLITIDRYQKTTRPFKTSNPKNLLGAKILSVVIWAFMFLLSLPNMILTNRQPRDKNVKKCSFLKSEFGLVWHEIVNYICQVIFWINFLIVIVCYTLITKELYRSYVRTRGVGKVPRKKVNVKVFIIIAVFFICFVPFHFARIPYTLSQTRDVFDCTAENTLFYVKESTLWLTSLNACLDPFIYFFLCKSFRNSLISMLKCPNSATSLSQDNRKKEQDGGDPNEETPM
T1 sequence (Q9H244 whole entry): as above

pIC50 [1]	pIC50 [2]	SMILES	pIC50 [3]
5.66	5.83	CCCSc1nc(N[C@@H]2C[C@H]2c2ccccc2)c2nnn([C@@H]3C=C[C@H](OCC(=O)O)[C@@H](O)[C@H]3O)c2n1 (mixture of isomers) [Cpd 11, [(1S,4R,5S,6S)-5,6-dihydroxy-4-{7-[(1RS,2SR)-2-phenyl-cyclopropylamino]-5-propylsulfanyl-[1,2,3]triazolo[4,5-d]pyrimidin-3-yl}-cyclohex-2-enyloxy]-acetic acid]	5.54
5.67	5.04	CCCCNc1nc(SCCC)nc2c1nnn2[C@@H]1C=C[C@H](O)[C@@H](O)[C@H]1O [Cpd 1, (1S,2R,3S,6R)-6-(7-butylamino-5-propylsulfanyl-[1,2,3]triazolo[4,5-d]pyrimidin-3-yl)-cyclohex-4-ene-1,2,3-triol]	4.82

Further lines, the compound ahead of its results:

SMILES	pIC50 [1]	pIC50 [2]	pIC50 [3]
CCCSc1nc(N[C@@H]2C[C@H]2c2ccccc2)c2nnn([C@@H]3C=C[C@H](O)[C@@H](O)[C@H]3O)c2n1 (mixture of isomers) [Cpd 5, (1S,2R,3S,6R)-6-{7-[(1RS,2SR)-2-phenyl-cyclopropylamino]-5-propylsulfanyl-[1,2,3]triazolo[4,5-d]pyrimidin-3-yl}-cyclohex-4-ene-1,2,3-triol]	6.13	5.68	5.30
CCCSc1nc(N[C@@H]2C[C@H]2c2ccccc2)c2nnn([C@@H]3CC[C@H](O)[C@@H](O)[C@H]3O)c2n1 (mixture of isomers) [Cpd 14, (1S,2R,3S,4R)-4-{7-[(1RS,2SR)-2-phenyl-cyclopropylamino]-5-propylsulfanyl-[1,2,3]triazolo[4,5-d]pyrimidin-3-yl}-cyclohexane-1,2,3-triol]	6.34	5.87	5.51
CCCSc1nc(N[C@@H]2C[C@H]2c2ccccc2)c2nnn([C@H]3[C@H](O)[C@H](O)[C@@H](O)[C@H](O)[C@@H]3O)c2n1 (racemic) [Cpd 9, (1R,2R,4S,5S)-6-{7-[(1RS,2SR)-phenyl-cyclopropylamino]-5-propylsulfanyl-[1,2,3]triazolo[4,5-d]pyrimidin-3-yl}-cyclohexane-1,2,3,4,5-pentaol]	5.53	5.30	4.82
CCCSc1nc(NCC2CCCN2CC)c2nnn([C@@H]3CC[C@H](O)[C@@H](O)[C@H]3O)c2n1 (stereo partly drawn) [Cpd 21, (1S,2R,3S,4R)-4-{7-[(1-ethyl-pyrrolidin-2-ylmethyl)-amino]-5-propylsulfanyl-[1,2,3]triazolo[4,5-d]pyrimidin-3-yl}-cyclohexane-1,2,3-triol]	< 4.52	–	< 4.52
